Results: patent EP0938471B1, “THE PREPARATION AND USE OF ORTHO-SULFONAMIDO ARYL HYDROXAMIC ACIDS AS MATRIX METALLOPROTEINASE AND TACE INHIBITORS” (priority 1996, dated 1998)
Structures can show the parent of a compound that is named as a salt. Where two headings read alike, the source gives them in different places.

Key:
TACE = TACE (Homo sapiens, UniProt P78536); assay: TACE inhibition (fluorescent peptidyl substrate); assay type: biochemical; conditions: for IC50: read-out: TACE IC50; for inhibition at 1 µM: at 1µM concentration
Sequence of TACE (P78536 215-824): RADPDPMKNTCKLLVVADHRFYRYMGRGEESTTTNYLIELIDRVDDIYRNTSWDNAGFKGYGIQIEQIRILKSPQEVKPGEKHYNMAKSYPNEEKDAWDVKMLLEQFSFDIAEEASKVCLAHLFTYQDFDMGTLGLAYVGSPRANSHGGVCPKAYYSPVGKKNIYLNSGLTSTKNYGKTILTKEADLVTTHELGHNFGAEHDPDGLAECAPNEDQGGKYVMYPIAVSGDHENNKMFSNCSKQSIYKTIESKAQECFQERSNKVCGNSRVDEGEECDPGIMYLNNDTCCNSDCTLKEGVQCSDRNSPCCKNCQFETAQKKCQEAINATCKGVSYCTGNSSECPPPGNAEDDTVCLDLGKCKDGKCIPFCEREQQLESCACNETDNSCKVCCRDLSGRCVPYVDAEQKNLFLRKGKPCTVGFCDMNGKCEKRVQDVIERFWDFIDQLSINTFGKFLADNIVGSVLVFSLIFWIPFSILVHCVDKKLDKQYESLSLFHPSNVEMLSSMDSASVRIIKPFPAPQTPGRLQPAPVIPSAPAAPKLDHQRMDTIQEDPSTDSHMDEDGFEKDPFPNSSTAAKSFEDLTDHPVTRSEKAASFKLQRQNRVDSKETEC

MMP-9 [1] = molecular target: T1, MMP-9 (Homo sapiens, UniProt P14780); assay: In vivo MMP inhibition (enzyme in implanted dialysis tubing); set-up: species or system rat (Sprague-Dawley) or mouse (CD-1)
T1 sequence (P14780 94-707): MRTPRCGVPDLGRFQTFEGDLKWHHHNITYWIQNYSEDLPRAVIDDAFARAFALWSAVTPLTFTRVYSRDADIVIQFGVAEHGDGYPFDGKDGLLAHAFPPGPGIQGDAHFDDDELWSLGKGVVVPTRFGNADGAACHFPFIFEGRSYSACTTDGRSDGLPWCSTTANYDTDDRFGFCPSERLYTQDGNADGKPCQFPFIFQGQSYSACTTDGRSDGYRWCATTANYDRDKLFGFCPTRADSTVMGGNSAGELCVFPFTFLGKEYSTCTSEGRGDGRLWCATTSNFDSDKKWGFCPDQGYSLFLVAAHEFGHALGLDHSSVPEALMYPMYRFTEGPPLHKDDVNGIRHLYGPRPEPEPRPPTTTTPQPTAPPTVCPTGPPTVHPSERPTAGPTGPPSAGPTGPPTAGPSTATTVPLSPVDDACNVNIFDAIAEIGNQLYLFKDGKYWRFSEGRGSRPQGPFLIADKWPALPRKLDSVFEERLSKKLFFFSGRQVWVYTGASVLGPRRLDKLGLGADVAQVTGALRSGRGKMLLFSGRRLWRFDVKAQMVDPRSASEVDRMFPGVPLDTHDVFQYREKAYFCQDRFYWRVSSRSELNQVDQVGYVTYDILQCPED
Method: A 2 cm piece of dialysis tubing (molecular weight cut-off 12-14,000, 10 mm flat width) containing matrix metalloproteinase enzyme (stromelysin, collagenase or gelatinase in 0.5 mL of buffer) is implanted either ip or sc (in the back) of a rat (Sprague-Dawley, 150-200g) or mouse (CD-1,25-50g) under anesthesia. Drugs are administered PO, IP, SC or IV through a canula in the jugular vein. Drugs are administered in a dose volume of 0.1 to 0.25 mL/animal. Contents of the dialysis tubing is collected and enzyme activity assayed. Enzyme reaction rates for each dialysis tube are calculated. Tubes from at least 3 different animals are used to calculate the mean± sem. Statistical significance (p<0.05) of vehicle-treated animals versus drug-treated animals is determined by analysis of variance. (Agents and Actions 21: 331, 1987).

MMP-13 = MMP-13 (Homo sapiens, UniProt P45452); assay: MMP-13 inhibition (thiopeptide or fluorescent peptide substrate assay); assay type: biochemical; conditions: for MMP-13 % inhibition: concentration given as (.1), unit not given
MMP-1 = molecular target: T2, MMP-1 (Homo sapiens, UniProt P03956); assay: MMP-1 inhibition (thiopeptide or fluorescent peptide substrate assay); assay type: biochemical; conditions: for IC50: read-out: MMP-1 IC50; for MMP-1 % inhibition: concentration given as (10), unit not given
T2 sequence (P03956 100-469): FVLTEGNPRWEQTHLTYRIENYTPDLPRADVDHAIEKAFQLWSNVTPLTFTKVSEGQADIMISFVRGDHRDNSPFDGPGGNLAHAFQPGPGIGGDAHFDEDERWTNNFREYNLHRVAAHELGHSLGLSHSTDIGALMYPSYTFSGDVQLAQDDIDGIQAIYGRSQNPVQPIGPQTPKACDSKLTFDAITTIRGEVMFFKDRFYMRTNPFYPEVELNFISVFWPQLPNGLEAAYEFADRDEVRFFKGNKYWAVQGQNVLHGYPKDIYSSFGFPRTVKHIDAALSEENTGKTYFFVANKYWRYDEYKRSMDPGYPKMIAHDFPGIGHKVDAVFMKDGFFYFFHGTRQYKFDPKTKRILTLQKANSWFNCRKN

MMP-9 [2] = molecular target: T1, MMP-9; assay: MMP-9 inhibition (thiopeptide or fluorescent peptide substrate assay); assay type: biochemical; conditions: for IC50: read-out: MMP-9 IC50; for inhibition at 1 µM: read-out: MMP-9 % inhibition, footnote: 1µM
[3] = 100 mg/kg, ip (intraperitoneal)

Compound | inhibition at 1 µM (TACE) | IC50 (TACE) | IC50 (MMP-13; read-out: MMP-13 IC50) | IC50 (MMP-1) | IC50 (MMP-9 [2]) | further results
COc1ccc(S(=O)(=O)N(Cc2ccccc2)c2c(C)cc(Br)cc2C(=O)NO)cc1 [Example 25, 2-[Benzyl-(4-methoxy-benzenesulfonyl)-amino]-5-bromo-N-hydroxy-3-methyl-benzamide] |  | > 1000 nM |  |  |  | in-vivo MMP % inhibition vs. MMP-9 (MMP-9 [1]; [3]): 32%(100), ip
COc1ccc(S(=O)(=O)N(Cc2ccccc2)c2c(OCc3ccccc3)cccc2C(=O)NO)cc1 [Example 34, 2-[Benzyl-(4-methoxy-benzenesulfonyl)-amino]-3-benzyloxy-N-hydroxy-benzamide] |  | > 1000 nM | 69 nM | 281 nM | 28 nM | in-vivo MMP % inhibition vs. MMP-9 (MMP-9 [1]; [3]): 31.6(100), ip %
COc1ccc(S(=O)(=O)N(Cc2cccnc2)c2c(C)cccc2C(=O)NO)cc1 [Example 61, N-Hydroxy-2-[(4-methoxy-benzenesulfonyl)-pyridin-3-ylmethyl-amino]-3-methyl-benzamide] |  | 289 nM |  |  |  | in-vivo MMP % inhibition vs. MMP-9 (MMP-9 [1]; 20 mg/kg, po (oral)): 46(20), po %; in-vivo MMP % inhibition vs. MMP-9 (MMP-9 [1]; 50 mg/kg, po (oral)): 59(50), po %
COc1ccc(S(=O)(=O)N(Cc2cccnc2)c2c(C)cc(Br)cc2C(=O)NO)cc1 [Example 91, 5-Bromo-N-hydroxy-2-[(4-methoxy-benzenesulfonyl)-pyridin-3-ylmethyl-amino]-3-methyl-benzamide] |  |  | 20 nM |  | 24 nM | in-vivo MMP % inhibition vs. MMP-9 (MMP-9 [1]; 100 mg/kg, po (oral)): 55(100), po %
CCCN(c1c(C)cc(C)cc1C(=O)NO)S(=O)(=O)c1ccc(OC)cc1 [Example 117, N-Hydroxy-2-[(4-methoxy-benzenesulfonyl)-propyl-amino]-3,5-dimethyl-benzamide] |  | 154 nM | 10 nM | 114 nM | 10 nM | in-vivo MMP % inhibition vs. MMP-9 (MMP-9 [1]; [3]): 28.3(100), ip %
COc1ccc(S(=O)(=O)N(Cc2ccc(OCCN3CCCCC3)cc2)c2c(C)cc(Br)cc2C(=O)NO)cc1 [Example 395, 5-Bromo-N-hydroxy-2-{(4-methoxy-benzenesulfonyl)-[4-(2-piperidin-1-yl-ethoxy)-benzyl]-amino}-3-methyl-benzamide] |  | 108 nM | 3.1 nM | 35 nM | 2.3 nM | 
COc1ccc(S(=O)(=O)N(Cc2ccc(C(=O)NCCN3CCCCC3)cc2)c2c(C)cccc2C(=O)NO)cc1 [Example 396] |  | 363 nM | 35 nM | 184 nM | 6.3 nM | 
COc1ccc(-c2ccc(-c3cc(C)c(N(Cc4cccnc4)S(=O)(=O)c4ccc(OC)cc4)c(C(=O)NO)c3)cc2)cc1 [Example 399, 4"-Methoxy-4-[(4-methoxy-benzenesulfonyl)-pyridin-3-ylmethyl-amino]-5-methyl-[1,1';4',1"]terphenyl-3-carboxylic acid hydroxyamide hydrochloride salt] | 25% |  | 41 nM | 2200 nM | 45 nM | 
COc1ccc(S(=O)(=O)N(Cc2cccnc2)c2c(C)cc(-c3cccc([N+](=O)[O-])c3)cc2C(=O)NO)cc1 [Example 400, 4-[(4-Methoxy-benzenesulfonyl)-pyridin-3-ylmethyl-amino]-5-methyl-3'-nitro-biphenyl-3-carboxylic acid hydroxyamide hydrochloride salt] |  | 231 nM | 4.9 nM | 295 nM | 6 nM | 
COc1ccc(-c2cc(C)c(N(Cc3cccnc3)S(=O)(=O)c3ccc(OC)cc3)c(C(=O)NO)c2)cc1 [Example 401, 4'-Methoxy-4-[(4-methoxy-benzenesulfonyl)-pyridin-3-ylmethyl-amino]-5-methyl-biphenyl-3-carboxylic acid hydroxyamide hydrochloride salt] |  | 146 nM | 2.8 nM | 176 nM | 1.4 nM | 
COc1ccc(S(=O)(=O)N(Cc2cccnc2)c2c(C)cc(-c3cc4ccccc4s3)cc2C(=O)NO)cc1 [Example 402, 5-Benzo[b]thiophen-2-yl-N-hydroxy-2-[(4-methoxy-benzenesulfonyl)-pyridin-3-ylmethyl-amino]-3-methyl-benzamide hydrochloride salt] |  | 639 nM | 8.5 nM | 543 nM | 2.6 nM | 
COc1ccc(S(=O)(=O)N(Cc2cccnc2)c2c(C)cc(-c3ccc(OC(F)(F)F)cc3)cc2C(=O)NO)cc1 [Example 404, 4-[(4-Methoxy-benzenesulfonyl)-pyridin-3-ylmethyl-amino]-5-methyl-4'-trifluoromethoxy-biphenyl-3-carboxylic acid hydroxyamide hydrochloride salt] | 54% |  | 9.5 nM | 1800 nM | 5.9 nM | 
COc1ccc(S(=O)(=O)N(Cc2cccnc2)c2c(C)cc(-c3ccc4c(c3)OCO4)cc2C(=O)NO)cc1 [Example 405, 5-Benzo[1,3]dioxol-5-yl-N-hydroxy-2-[(4-methoxy-benzenesulfonyl)-pyridin-3-ylmethyl-amino]-3-methyl-benzamide hydrochloride salt] |  | 151 nM | 5.8 nM | 176 nM | 4.1 nM | 
N-Hydroxy-2-[(4-methoxy-benzenesulfonyl)-pyridin-3-ylmethyl-amino]-5-methyl-3-thiophen-2-yl-benzamide [Example 145] |  | 158 nM | 3 nM | 55 nM | 7 nM | 

Second part, led by results:

inhibition at 1 µM (TACE) | Compound | IC50 (TACE) | IC50 (MMP-13; read-out: MMP-13 IC50) | IC50 (MMP-1) | IC50 (MMP-9 [2]) | further results
2% | Cc1cccc(C(=O)NO)c1N(Cc1cccnc1)S(=O)(=O)c1ccc(-c2ccc(C(F)(F)F)cc2)cc1 [Example 410, N-Hydroxy-3-methyl-2-[pyridin-3-ylmethyl-(4'-trifluoromethyl-biphenyl-4-sulfonyl)-amino]-benzamide] |  |  |  |  | MMP-13 % inhibition (MMP-13): 40%(.1); MMP-1 % inhibition (MMP-1): 47%(10); inhibition at 1 µM (MMP-9 [2]): 28%
9% | COc1ccc(-c2ccc(S(=O)(=O)N(Cc3cccnc3)c3c(C)cccc3C(=O)NO)cc2)c(OC)c1 [Example 411, 2-[(2',4'-Dimethoxy-biphenyl-4-sulfonyl)-pyridin-3-ylmethyl-amino]-N-hydroxy-3-methyl-benzamide] |  |  |  |  | inhibition at 1 µM (MMP-13; read-out: MMP-13 % inhibition, footnote: 1µM): 44%; MMP-1 % inhibition (MMP-1): 32%(10); inhibition at 1 µM (MMP-9 [2]): 39%
3% | Cc1cccc(C(=O)NO)c1N(Cc1cccnc1)S(=O)(=O)c1ccc(-c2cccs2)cc1 [Example 412, N-Hydroxy-3-methyl-2-[pyridin-3-ylmethyl-(4-thiophen-2-yl-benzenesulfonyl)-amino]-benzamide] |  |  |  |  | MMP-13 % inhibition (MMP-13): 42%(.1); MMP-1 % inhibition (MMP-1): 69%(10); inhibition at 1 µM (MMP-9 [2]): 44%
43% | C#Cc1ccc(S(=O)(=O)N(Cc2cccnc2)c2c(C)cccc2C(=O)NO)cc1 [Example 413, 2-[(4-Ethynyl-benzenesulfonyl)-pyridin-3-ylmethyl-amino]-N-hydroxy-3-methyl-benzamide] |  | 75 nM | 529 nM | 55 nM | 
6% | Cc1cccc(C(=O)NO)c1N(Cc1cccnc1)S(=O)(=O)c1ccc(-c2cc3ccccc3s2)cc1 [Example 414, 2-[(4-Benzo[b]thiophen-2-yl-benzenesulfonyl)-pyridin-3-ylmethyl-amino]-N-hydroxy-3-methyl-benzamide] |  | 38 nM |  |  | MMP-1 % inhibition (MMP-1): 29%(10); inhibition at 1 µM (MMP-9 [2]): 68%
9% | Cc1cccc(C(=O)NO)c1N(Cc1cccnc1)S(=O)(=O)c1ccc(-c2ccc3c(c2)OCO3)cc1 [Example 415, 2-[(4-Benzo[1,3]dioxol-5-yl-benzenesulfonyl)-pyridin-3-ylmethyl-amino]-N-hydroxy-3-methyl-benzamide] |  |  |  |  | IC50 (MMP-13): 26 nM; MMP-1 % inhibition (MMP-1): 37%(10); inhibition at 1 µM (MMP-9 [2]): 43%
